Here are results for 20 molecules from patent publication US9284333B2, “Fused pyrroledicarboxamides and their use as pharmaceuticals” (SANOFI, priority 2012, dated 2016).

Usually inhibition stands for the percentage by which the read-out fell short of the control. High values mean strong suppression, low ones little suppression. One may read the IC50 as the concentration that inhibits the measured activity by half.

Sequence of Human TASK-1 channels (O14649 whole entry, the tested form may be a part): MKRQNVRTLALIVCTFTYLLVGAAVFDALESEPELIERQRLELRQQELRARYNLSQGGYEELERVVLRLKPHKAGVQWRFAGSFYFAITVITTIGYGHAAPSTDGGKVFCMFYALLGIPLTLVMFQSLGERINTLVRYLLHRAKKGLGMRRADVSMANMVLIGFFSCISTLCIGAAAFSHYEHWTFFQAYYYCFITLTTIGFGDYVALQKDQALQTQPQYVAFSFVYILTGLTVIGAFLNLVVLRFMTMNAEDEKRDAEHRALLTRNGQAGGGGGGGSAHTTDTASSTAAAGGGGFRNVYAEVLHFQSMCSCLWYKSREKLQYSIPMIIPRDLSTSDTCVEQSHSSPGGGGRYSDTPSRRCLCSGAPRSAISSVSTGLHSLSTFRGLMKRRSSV

One test deals with Human TASK-1 channels (Homo sapiens (Human), UniProt O14649). As to the kind of experiment: Determination of the activity on the TASK-1 channel in Xenopus oocytes (two-microelectrode voltage clamp). The test is classed as cell-based. The following applies: compound concentration 5 μM. Put shortly:
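Xenopus oocytes were injected with human TASK-1 cRNA and recorded two days later by two-microelectrode voltage clamp, holding at −90 mV with 500 ms steps to 40 mV. Superfusion used ND96, pH 7.4, at room temperature, with rising compound concentrations; percentage inhibition of control current was fitted to a dose-response curve for IC50.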
Consider `CC[C@H](NC(=O)c1cc(C(=O)N[C@H](CC)c2ccc(C(F)(F)F)nc2)c2n1CCOC2)c1ccccc1` [16kf, 3,4-Dihydro-1H-pyrrolo[2,1-c][1,4]oxazine-6,8-dicarboxylic acid 6-[((S)-1-phenyl-propyl)-amide] 8-{[(R)-1-(6-trifluoromethyl-pyridin-3-yl)-propyl]-amide}], for which the inhibition at 5 µM was 90%. Still for that read-out and setting: the figure for `CC(c1ncccn1)N(CC1CC1)C(=O)c1cc(C(=O)N[C@H](C)c2ccc(F)cc2)n2c1COCC2` (stereo partly drawn) [16ea, 3,4-Dihydro-1H-pyrrolo[2,1-c][1,4]oxazine-6,8-dicarboxylic acid 8-[cyclopropylmethyl-(1-pyrimidin-2-yl-ethyl)-amide] 6-{[(R)-1-(4-fluoro-phenyl)-ethyl]-amide}] is 72%. As to `CCN(Cc1nnn(C)n1)C(=O)c1cc(C(=O)N[C@H](C)c2ccc(F)cc2)n2c1COCC2` [16rt, 3,4-Dihydro-1H-pyrrolo[2,1-c][1,4]oxazine-6,8-dicarboxylic acid 8-[ethyl-(2-methyl-2H-tetrazol-5-ylmethyl)-amide] 6-{[(R)-1-(4-fluoro-phenyl)-ethyl]-amide}], 5 µM produced 72% inhibition.

The test is the same for the next values; noted with them: human TASK-1 expressed in Xenopus oocytes, room temperature; read-out: IC50 value for TASK-1 inhibition.
Take `CC[C@@H](NC(=O)c1cc(C(=O)N2CCC[C@@H]2c2cnccn2)c2n1CCOC2)c1ccc(F)cc1F` [16pj, 8-((R)-2-Pyrazin-2-yl-pyrrolidine-1-carbonyl)-3,4-dihydro-1H-pyrrolo[2,1-c][1,4]oxazine-6-carboxylic acid [(R)-1-(2,4-difluoro-phenyl)-propyl]-amide]: the IC50 amounted to 1100 nM. Still for that read-out and setting: to `CC[C@@H](NC(=O)c1cc(C(=O)N2CCCC2c2c(C)noc2C)n2c1COCC2)c1ccccc1` (stereo partly drawn) [16er, 6-[2-(3,5-Dimethyl-isoxazol-4-yl)-pyrrolidine-1-carbonyl]-3,4-dihydro-1H-pyrrolo[2,1-c][1,4]oxazine-8-carboxylic acid ((R)-1-phenyl-propyl)-amide] belongs 320 nM. As for `CC[C@@H](NC(=O)c1cc(C(=O)N2CCC[C@@H]2C)n2c1COCC2)c1ccc(C(F)(F)F)c(Cl)c1` [16c, 6-((S)-2-Methyl-pyrrolidine-1-carbonyl)-3,4-dihydro-1H-pyrrolo[2,1-c][1,4]oxazine-8-carboxylic acid [(R)-1-(3-chloro-4-trifluoromethyl-phenyl)-propyl]-amide], the IC50 is 13 nM. As to `CC[C@@H](NC(=O)c1cc(C(=O)NCc2ccc(CC(=O)OC)cc2)n2c1COCC2)c1ccccc1` [16is, [4-({[8-((R)-1-Phenyl-propylcarbamoyl)-3,4-dihydro-1H-pyrrolo[2,1-c][1,4]oxazine-6-carbonyl]-amino}-methyl)-phenyl]-acetic acid methyl ester], the IC50 was 1700 nM. Take `CC[C@@H](NC(=O)c1cc(C(=O)N2CCC[C@@H]2C)n2c1COCC2)c1cccc(O)c1` [16ab, 6-((S)-2-Methyl-pyrrolidine-1-carbonyl)-3,4-dihydro-1H-pyrrolo[2,1-c][1,4]oxazine-8-carboxylic acid [(R)-1-(3-hydroxy-phenyl)-propyl]-amide]: the IC50 was 2600 nM. For the molecule `CC[C@@H](NC(=O)c1cc(C(=O)N[C@H](CO)C(C)C)n2c1COCC2)c1ccccc1` [16iz, 3,4-Dihydro-1H-pyrrolo[2,1-c][1,4]oxazine-6,8-dicarboxylic acid 6-[((S)-1-hydroxymethyl-2-methyl-propyl)-amide] 8-[((R)-1-phenyl-propyl)-amide]], the IC50 amounted to 1900 nM. On the same count and under the same terms, to `CC[C@@H](NC(=O)c1cc(C(=O)N[C@H](C)c2ccc(F)cc2)n2c1COCC2)c1cccnc1C(F)(F)F` [16dt, 3,4-Dihydro-1H-pyrrolo[2,1-c][1,4]oxazine-6,8-dicarboxylic acid 6-{[(R)-1-(4-fluoro-phenyl)-ethyl]-amide} 8-{[(R)-1-(2-trifluoromethyl-pyridin-3-yl)-propyl]-amide}] belongs 1000 nM; to `CC[C@@H](NC(=O)c1cc(C(=O)N2CCC[C@@H]2COC)n2c1COCC2)c1ccccc1` [16eo, 6-((R)-2-Methoxymethyl-pyrrolidine-1-carbonyl)-3,4-dihydro-1H-pyrrolo[2,1-c][1,4]oxazine-8-carboxylic acid ((R)-1-phenyl-propyl)-amide], 380 nM.

As to `CC[C@@H](NC(=O)c1cc(C(=O)N2CCN(c3ccccn3)C[C@@H]2C)n2c1COCC2)c1ccccc1` [16fs, 6-((S)-2-Methyl-4-pyridin-2-yl-piperazine-1-carbonyl)-3,4-dihydro-1H-pyrrolo[2,1-c][1,4]oxazine-8-carboxylic acid ((R)-1-phenyl-propyl)-amide], the IC50 came out at 670 nM. Still for that read-out and setting: the figure for `CC[C@@H](NC(=O)c1cc(C(=O)N2CCC[C@@H]2C)n2c1COCC2)c1ccc(C#N)cc1F` [16ay, 6-((S)-2-Methyl-pyrrolidine-1-carbonyl)-3,4-dihydro-1H-pyrrolo[2,1-c][1,4]oxazine-8-carboxylic acid [(R)-1-(4-cyano-2-fluoro-phenyl)-propyl]-amide] is 910 nM. With `CC[C@@H](NC(=O)c1cc(C(=O)N2CCC[C@H]2C)n2c1COCC2)c1ccccc1` [16ej, 6-((R)-2-Methyl-pyrrolidine-1-carbonyl)-3,4-dihydro-1H-pyrrolo[2,1-c][1,4]oxazine-8-carboxylic acid ((R)-1-phenyl-propyl)-amide], the IC50 came to 260 nM. On the same count and under the same terms, to `CC(C)[C@@H](NC(=O)c1cc(C(=O)N[C@@H](C)c2ncccn2)c2n1CCOC2)c1ccc(F)cc1` (racemic) [16lr, 3,4-Dihydro-1H-pyrrolo[2,1-c][1,4]oxazine-6,8-dicarboxylic acid 6-{[(R)-1-(4-fluoro-phenyl)-2-methyl-propyl]-amide} 8-[((S)-1-pyrimidin-2-yl-ethyl)-amide]] belongs 360 nM; to `CC[C@@H](NC(=O)c1cc(C(=O)N2CCC[C@@H]2C)n2c1COCC2)c1ccc(C(F)(F)F)cc1` [16f, 6-((S)-2-Methyl-pyrrolidine-1-carbonyl)-3,4-dihydro-1H-pyrrolo[2,1-c][1,4]oxazine-8-carboxylic acid [(R)-1-(4-trifluoromethyl-phenyl)-propyl]-amide], 68 nM. The same measure, in the same setting: the figure for `CC[C@@H](NC(=O)c1cc(C(=O)N[C@H](CC)c2ccccc2)n2c1COCC2)c1ccc(OC)nc1` [16jo, 3,4-Dihydro-1H-pyrrolo[2,1-c][1,4]oxazine-6,8-dicarboxylic acid 8-{[(R)-1-(6-methoxy-pyridin-3-yl)-propyl]-amide} 6-[((R)-1-phenyl-propyl)-amide]] is 250 nM; for `CC[C@@H](NC(=O)c1cc(C(=O)N2CCC[C@@H]2C)n2c1CSCC2)c1ccccc1` [16kz, 6-((S)-2-Methyl-pyrrolidine-1-carbonyl)-3,4-hihydro-1H-pyrrolo[2,1-c][1,4]thiazine-8-carboxylic acid ((R)-1-phenyl-propyl)-amide] it is 270 nM. Same read-out and setting: the figure for `CC[C@@H](NC(=O)c1cc(C(=O)NCc2cncc(F)c2)n2c1COCC2)c1ccccc1` [16gu, 3,4-Dihydro-1H-pyrrolo[2,1-c][1,4]oxazine-6,8-dicarboxylic acid 6-[(5-fluoro-pyridin-3-ylmethyl)-amide] 8-[((R)-1-phenyl-propyl)-amide]] is 640 nM; for `CC(C)[C@@H](NC(=O)c1cc(C(=O)N2CCC[C@@H]2C)n2c1COCC2)c1ccc(C(F)(F)F)nc1` [16aq, 6-((S)-2-Methyl-pyrrolidine-1-carbonyl)-3,4-dihydro-1H-pyrrolo[2,1-c][1,4]oxazine-8-carboxylic acid [(R)-2-methyl-1-(6-trifluoromethyl-pyridin-3-yl)-propyl]-amide] it is 460 nM.
